Data from paper PMC13053910, “Covalent Protein Inhibitors via Tyrosine and Tryptophan Conjugation with Cyclic Imine Mannich Electrophiles” (Angewandte Chemie (International Ed. in English), 2026).
pIC50, pKd: −log10 of the molar value. Non-standard residues stand in square brackets, D forms with d. Residues, ends and D or L forms follow the SMILES beside them. *: point of attachment. Benzoyl(4-OPh) = O=C(c1ccc(Oc2ccccc2)cc1)*; Lys(Et2) = CCN(CC)CCCC[C@H](N)C(=O)O; Gly(cPent) = N[C@H](C(=O)O)C1CCCC1

Columns and labels:
[1] = Reaction of cyclic imine Mannich or sulfur fluoride electrophiles with Ac-Tyr-NHMe (HPLC, LC/MS); type: physicochemical; conditions: PBS pH 7, 37 °C; for reactivity (t1/2): electrophile 5 mM, N‐acetyl‐l‐tyrosine methyl amide 100 mM; for second‐order rate constant k2 with N‐Ac‐Tyr‐NHMe: pseudo‐first‐order conditions
Protocol: To identify an appropriate warhead, we synthesized or purchased a collection of cyclic imines and incubated them with N‐acetyl‐L‐tyrosine methylamide (Ac‐Tyr‐NHMe) in PBS pH 7 at 37 °C (Table 1). The reactivity was quantified by UV integration on HPLC with LC/MS confirmation of product identity (Figure S1). […] The hydrolysis kinetics of imine 2 were characterized at pD 6 and 7.5 by NMR (Figure S3). […] The Mannich reaction mechanism involves a charged iminium intermediate, and the reaction is frequently catalyzed by Bronsted acids.^[ [36], [37] ^]
(§1) Figure 2 Second‐order rate constants for select cyclic imines and a sulfonyl fluoride with aromatic nucleophiles. Reactions were conducted under pseudo‐first‐order conditions with an excess of one reactant, as indicated. The reduction in the concentration of the limiting reactant was measured at various time points by HPLC analysis.
Figure S2: Second order rate constant determination. Reaction of (A) imine 1 (5 mM) with N-Ac-Tyr-NHMe (100 mM) at 37 °C or (B) at R.T. (C) imine 2 (5 mM) with N-Ac-Tyr-NHMe (100 mM) at 37 °C (D) imine 1 (5 mM) with indole-3-butyrate (100 mM) at 37 °C (E) imine 1 (10 mM) with 1 mM 1H-pyrrole-1-propionate (F) iminium 5 (5 mM) with N-Ac-Tyr-NHMe (100 mM) at 37 °C (G) imine 4 (5 mM) with N-Ac-Tyr-NHMe (100 mM) at 37 °C. (H) imine 11 (5 mM) with N-Ac-Tyr-NHMe (100 mM) at 37 °C. (I) imine 13 (5 mM) with N-Ac-Tyr-NHMe (100 mM) at 37 °C.
5.1 General procedure for determination of second order rate constants N-acetyl-l-tyrosine methyl amide (Ac-Tyr-NHMe) (100 mM) was incubated with 5 mM imine 1 in PBS (pH 7) at 37 °C or R.T..

[2] = Reaction of imine 1 with indole-3-butyrate (tryptophan mimic), rate constant; type: physicochemical; conditions: imine 5 mM, indole-3-butyrate 100 mM, 37 °C
Protocol: as §1, with “analysis. Rates of imine 1 with N‐Ac‐Tyr‐NMe, indole‐3‐butyric acid, and 1H‐pyrrole‐1‐propionic acid and compounds 4, 11, and 13 with N‐Ac‐Tyr‐NMe were measured. […]” for “analysis.”
(§2) To assess the selectivity for tyrosine side chains, we tested the reactivity of 1 with additional compounds, including β‐mercaptoethanol, imidazole, isopropanol, n‐butylamine, propionic acid, 3‐methyl indole, and N‐ethyl pyrrole. […] While partially stable under LC/MS conditions, the N,S‐thioaminal product is readily reversible.^[ [41] ^] […] We determined a second‐order rate constant of 5.9 × 10^−2 M^−1 s^−1 for the reaction of 1 with 1H‐pyrrole‐1‐propionate (Figures 2 and S2). […]

[3] = Reaction of imine 1 with 1H-pyrrole-1-propionate (pyrrolated lysine mimic), rate constant; type: physicochemical; conditions: imine 10 mM, 1 mM 1H-pyrrole-1-propionate
Protocol: as §1, with “analysis. Rates of imine 1 with N‐Ac‐Tyr‐NMe, indole‐3‐butyric acid, and 1H‐pyrrole‐1‐propionic acid and compounds 4, 11, and 13 with N‐Ac‐Tyr‐NMe were measured. […]” for “analysis.”
as §2

CBX8 chromodomain (ChD) = molecular target: T1, CBX8 chromodomain (ChD) (Homo sapiens, UniProt Q9HC52); test: Non-directed labeling of CBX8 ChD with cyclic imine 1 (mass spectrometry); type: binding; conditions: 1 (50 µM), CBX8 ChD (50 µM), 10 h
T1 construct: CBX chromodomain constructs (addgene plasmid #25158 (CBX2), and #62514 (CBX8, provided by Cheryl Arrowsmith)); 6His; host or cells: E. coli (BL21 CodonPlus RIL or Rosetta 2)
T1 sequence (Q9HC52 11-69 limits assumed): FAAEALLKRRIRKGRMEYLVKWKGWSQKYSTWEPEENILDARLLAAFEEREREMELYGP
From the text: Our interest in this chemistry was to improve inhibitors of the chromodomains (ChD) of the CBX family of epigenetic proteins, which have proven challenging to inhibit selectively or with drug‐like small molecules.^[ [47] ^] The CBX ChDs bind a trimethylated lysine (Kme3) side chain on histone tails via cation‐pi interactions with the aromatic cage in the ChD. Our initial hypothesis was that the aromatic cage tryptophan residues would show increased reactivity to Mannich electrophiles, as they function naturally to donate electron density to the electron‐poor methyl groups of Kme3. To test this, 1 (50 µM) was incubated for 10 h with the CBX8 chromodomain (ChD) (50 µM), and labeling was assessed by mass spectrometry (Figure S11).
Figure S11. […] Cyclic imine 1 ([…]) was incubated with 50 µM CBX8 ChD in PBS (pH=7, 0.02% Tween20) buffer at R.T. for 16 hours overnight. Labeled protein was precipitated using cold MeOH:CHCl3 at the ratio of MeOH:CHCl3:Protein = 3:0.5:1, followed with two methanol washes. Protein pellet was air dried after the last wash resuspensed in water containing 0.1% formic acid and 100 mM ammonium acetate. Protein labeling was characterized by LC/MS (Unmodified CBX8 control is indicated in red, and CBX8 labeled with cyclic imine is indicated in green).

[4] = Stability of warheads and inhibitors (solid, PBS, hydrolysis); type: physicochemical; conditions: solid, room temperature
Protocol: To be suitable for chemical probe and therapeutic applications, the warhead should show good stability. In general, we found the iminolactam warheads to be quite stable. Compound 1 was stable as a solid at room temperature for over 3 months. […] After 24‐h in aqueous buffer, compounds were treated with sodium cyanoborohydride. […] The synthetic strategy of in situ formation of imines by periodate treatment was pursued to avoid concerns of warhead reactivity with the ligand itself to either the peptide backbone or the phenoxyphenyl aryl group. This appears to have been unnecessary, at least for the iminolactam warhead. […] The more reactive ester imine may be forming semi‐stable cyclized products with the amide backbone, which have been observed previously with peptide aldehydes.^[ [51], [52] ^] Due to these issues, we selected compound P1b for further characterization.

[5] = pH 7 and 37 °C ref 39; cited from earlier work
[6] = tested on: HOXA9 gene expression in THP1 cells; test: qRT-PCR analysis of HOXA9 gene expression in THP1 cells; type: cell-based, Human; conditions: 48 h
Protocol: Figure 7 Cellular activity of covalent, cyclic imine inhibitors to CBX8. a) qRT‐PCR analysis of HOXA9 gene expression in THP1 cells after 48 h of compound treatment at the indicated dose. N = 3. Error bars represent SD. Statistical significance was calculated using Student's t‐test. ** = p < 0.01, **** = p < 0.0001, b) qRT‐PCR analysis of HOXA9 gene expression in THP1 cells treated with increasing doses of compound for 48 h. N = 3. Error bars represent SD.
Figure S24. Cellular activity of covalent, cyclic imine inhibitors to CBX8. qRT-PCR analysis of HOXA9 gene expression in THP1 cells after 48 h of compound treatment at the indicated dose. N = 3. Error bars represent s.d. Statistical significance determined by Student’s T test. * = p <0.05, ** = p < 0.01, *** = p < 0.001, **** = p < 0.0001.
2.4 Cell Culture Cell line, Media and Culture Conditions HEK293T cells were cultured in Dubecco’s Modified Essential Media (DMEM), 10% fetal bovine serum (FBS, JR Scientific), 1% glutagro (Corning), 1% penicillin/streptomycin (Corning), 1% sodium pyruvate (Corning). Human THP1 cells were cultured in RPMI (Gibco), 10% FBS (J R Scientific), 1% Sodium pyruvate (Invitrogen), 1% Pen/Strep (Invitrogen), 1% Glutamax (Thermo Scientific), 0.1% 2-mercaptoethanol.
Cells were harvested after 48 h for RNA extraction. […] SYBR Green Mastermix (Thermo Scientific) was used for quantitative PCR. […]

CBX8 ChD = molecular target: CBX8 ChD; set-up: method as in PMID 31755685, PMID 29309209; conditions: prior work ref 47, 48; cited from earlier work

stable as a solid at room temperature [4]	pIC50 [6]	Compound	reactivity (t1/2) [1]	second‐order rate constant k2 with N‐Ac‐Tyr‐NHMe [1]	second‐order rate constant k2 with indole‐3‐butyrate [2]	second‐order rate constant k2 with 1H‐pyrrole‐1‐propionate [3]	labeling of CBX8 ChD by imine alone (CBX8 chromodomain (ChD))	hydrolysis half‐life [5]	pKd (CBX8 ChD)
over 3 months	–	O=C1C=NC2CCCCC2N1 (centres unmarked) [compound 1]	8 ± 0.3 h	0.00024 M⁻¹ s⁻¹	0.00011 M⁻¹ s⁻¹	0.059 M⁻¹ s⁻¹	distribution of unlabeled, singly, doubly, and triply labeled protein indicative of random labeling	–	–
–	–	NCCc1ccc(S(=O)(=O)F)cc1 [compound 13, 4‐(2‐aminoethyl)‐benzenesulfonyl fluoride, reference compound]	0.28 ± 0.02 h	0.0069 M⁻¹ s⁻¹	–	–	–	6 h	–
–	< 4.66	CC[C@H](C)[C@H](NC(=O)[C@@H](NC(=O)c1ccc(Oc2ccccc2)cc1)C1CCCC1)C(=O)N[C@@H](CCCCN(CC)CC)C(=O)N[C@@H](CO)C(N)=O [SW2_110A, reference compound] ({Benzoyl(4-OPh)}-[Gly(cPent)]I[Lys(Et2)]S-NH2)	–	–	–	–	–	–	6.10
